Measurements reported in ChEMBL document CHEMBL5154747, “Discovery of new carbonic anhydrase IX inhibitors as anticancer agents by toning the hydrophobic and hydrophilic rims of the active site to encounter the dual-tail approach” (Eur J Med Chem, 2022).

Columns and labels:
NCI-H522 = experiment: Anticancer activity against human NCI-H522 cells assessed as cell growth inhibition at 10 uM incubated for 48 hrs by SRB assay relative to control; assay type: functional; details: read-out: GI
ACHN = experiment: Anticancer activity against human ACHN cells assessed as cell growth inhibition at 10 uM incubated for 48 hrs by SRB assay relative to control; assay type: functional; details: read-out: GI
MDA-MB-468 = experiment: Anticancer activity against human MDA-MB-468 cells assessed as cell growth inhibition at 10 uM incubated for 48 hrs by SRB assay relative to control; assay type: functional; details: read-out: GI
Carbonic anhydrase 9 = Carbonic anhydrase 9 (Homo sapiens, UniProt Q16790); experiment: Inhibition of recombinant human CA 9 preincubated for 15 mins by phenol red dye based stopped flow CO2 hydration assay
OVCAR-5 = experiment: Anticancer activity against human OVCAR-5 cells assessed as cell growth inhibition at 10 uM incubated for 48 hrs by SRB assay relative to control; assay type: functional; details: read-out: GI
SNB-75 = experiment: Anticancer activity against human SNB-75 cells assessed as cell growth inhibition at 10 uM incubated for 48 hrs by SRB assay relative to control; assay type: functional; details: read-out: GI
SNB-19 = experiment: Anticancer activity against human SNB-19 cells assessed as cell growth inhibition at 10 uM incubated for 48 hrs by SRB assay relative to control; assay type: functional; details: read-out: GI
IGROV-1 = experiment: Anticancer activity against human IGROV-1 cells assessed as cell growth inhibition at 10 uM incubated for 48 hrs by SRB assay relative to control; assay type: functional; details: read-out: GI
HL-60(TB) = experiment: Anticancer activity against human HL-60(TB) cells assessed as cell growth inhibition at 10 uM incubated for 48 hrs by SRB assay relative to control; assay type: functional; details: read-out: GI
Malme-3M = experiment: Anticancer activity against human Malme-3M cells assessed as cell growth inhibition at 10 uM incubated for 48 hrs by SRB assay relative to control; assay type: functional; details: read-out: GI
K562 = experiment: Anticancer activity against human K562 cells assessed as cell growth inhibition at 10 uM incubated for 48 hrs by SRB assay relative to control; assay type: functional; details: read-out: GI
SF-539 = experiment: Anticancer activity against human SF-539 cells assessed as cell growth inhibition at 10 uM incubated for 48 hrs by SRB assay relative to control; assay type: functional; details: read-out: GI
UACC-257 = experiment: Anticancer activity against human UACC-257 cells assessed as cell growth inhibition at 10 uM incubated for 48 hrs by SRB assay relative to control; assay type: functional; details: read-out: GI
OVCAR-4 = experiment: Anticancer activity against human OVCAR-4 cells assessed as cell growth inhibition at 10 uM incubated for 48 hrs by SRB assay relative to control; assay type: functional; details: read-out: GI
RXF 393 = experiment: Anticancer activity against human RXF 393 cells assessed as cell growth inhibition at 10 uM incubated for 48 hrs by SRB assay relative to control; assay type: functional; details: read-out: GI
KM12 = experiment: Anticancer activity against human KM12 cells assessed as cell growth inhibition at 10 uM incubated for 48 hrs by SRB assay relative to control; assay type: functional; details: read-out: GI
MOLT-4 = experiment: Anticancer activity against human MOLT-4 cells assessed as cell growth inhibition at 10 uM incubated for 48 hrs by SRB assay relative to control; assay type: functional; details: read-out: GI
SK-OV-3 = experiment: Anticancer activity against human SK-OV-3 cells assessed as cell growth inhibition at 10 uM incubated for 48 hrs by SRB assay relative to control; assay type: functional; details: read-out: GI
MDA-MB-435 = experiment: Anticancer activity against human MDA-MB-435 cells assessed as cell growth inhibition at 10 uM incubated for 48 hrs by SRB assay relative to control; assay type: functional; details: read-out: GI
HT-29 = experiment: Anticancer activity against human HT-29 cells assessed as cell growth inhibition at 10 uM incubated for 48 hrs by SRB assay relative to control; assay type: functional; details: read-out: GI
HOP-62 = experiment: Anticancer activity against human HOP-62 cells assessed as cell growth inhibition at 10 uM incubated for 48 hrs by SRB assay relative to control; assay type: functional; details: read-out: GI
CAKI-1 = experiment: Anticancer activity against human CAKI-1 cells assessed as cell growth inhibition at 10 uM incubated for 48 hrs by SRB assay relative to control; assay type: functional; details: read-out: GI
SR = experiment: Anticancer activity against human SR cells assessed as cell growth inhibition at 10 uM incubated for 48 hrs by SRB assay relative to control; assay type: functional; details: read-out: GI
OVCAR-3 = experiment: Anticancer activity against human OVCAR-3 cells assessed as cell growth inhibition at 10 uM incubated for 48 hrs by SRB assay relative to control; assay type: functional; details: read-out: GI
MDA-MB-231 = experiment: Anticancer activity against human MDA-MB-231 cells assessed as cell growth inhibition at 10 uM incubated for 48 hrs by SRB assay relative to control; assay type: functional; details: read-out: GI
SK-MEL-5 = experiment: Anticancer activity against human SK-MEL-5 cells assessed as cell growth inhibition at 10 uM incubated for 48 hrs by SRB assay relative to control; assay type: functional; details: read-out: GI
SK-MEL-2 = experiment: Anticancer activity against human SK-MEL-2 cells assessed as cell growth inhibition at 10 uM incubated for 48 hrs by SRB assay relative to control; assay type: functional; details: read-out: GI
SF-295 = experiment: Anticancer activity against human SF-295 cells assessed as cell growth inhibition at 10 uM incubated for 48 hrs by SRB assay relative to control; assay type: functional; details: read-out: GI
SK-MEL-28 = experiment: Anticancer activity against human SK-MEL-28 cells assessed as cell growth inhibition at 10 uM incubated for 48 hrs by SRB assay relative to control; assay type: functional; details: read-out: GI
HCC 2998 = experiment: Anticancer activity against human HCC 2998 cells assessed as cell growth inhibition at 10 uM incubated for 48 hrs by SRB assay relative to control; assay type: functional; details: read-out: GI
NCI-H460 = experiment: Anticancer activity against human NCI-H460 cells assessed as cell growth inhibition at 10 uM incubated for 48 hrs by SRB assay relative to control; assay type: functional; details: read-out: GI
BT-549 = experiment: Anticancer activity against human BT-549 cells assessed as cell growth inhibition at 10 uM incubated for 48 hrs by SRB assay relative to control; assay type: functional; details: read-out: GI
SN12C = experiment: Anticancer activity against human SN12C cells assessed as cell growth inhibition at 10 uM incubated for 48 hrs by SRB assay relative to control; assay type: functional; details: read-out: GI
TK-10 = experiment: Anticancer activity against human TK-10 cells assessed as cell growth inhibition at 10 uM incubated for 48 hrs by SRB assay relative to control; assay type: functional; details: read-out: GI
HCT-116 = experiment: Anticancer activity against human HCT-116 cells assessed as cell growth inhibition at 10 uM incubated for 48 hrs by SRB assay relative to control; assay type: functional; details: read-out: GI
NCI-H23 = experiment: Anticancer activity against human NCI-H23 cells assessed as cell growth inhibition at 10 uM incubated for 48 hrs by SRB assay relative to control; assay type: functional; details: read-out: GI
HOP-92 = experiment: Anticancer activity against human HOP-92 cells assessed as cell growth inhibition at 10 uM incubated for 48 hrs by SRB assay relative to control; assay type: functional; details: read-out: GI
Hs-578T = experiment: Anticancer activity against human Hs-578T cells assessed as cell growth inhibition at 10 uM incubated for 48 hrs by SRB assay relative to control; assay type: functional; details: read-out: GI
T47D = experiment: Anticancer activity against human T47D cells assessed as cell growth inhibition at 10 uM incubated for 48 hrs by SRB assay relative to control; assay type: functional; details: read-out: GI

NS(=O)(=O)c1ccc(Nc2nc(N/N=C/c3ccc4c(c3)OCO4)nc(Nc3ccccc3)n2)cc1
inhibition of growth at 10 µM (NCI-H522): 39% | inhibition of growth at 10 µM (ACHN): 42% | inhibition of growth at 10 µM (MDA-MB-468): 53% | Ki (Carbonic anhydrase 9): 29.3 nM | inhibition of growth at 10 µM (OVCAR-5): < 10% | inhibition of growth at 10 µM (SNB-75): 46% | inhibition of growth at 10 µM (SNB-19): 44% | inhibition of growth at 10 µM (IGROV-1): 63% | inhibition of growth at 10 µM (HL-60(TB)): 68% | inhibition of growth at 10 µM (Malme-3M): 41% | inhibition of growth at 10 µM (K562): 66% | inhibition of growth at 10 µM (SF-539): 83% | inhibition of growth at 10 µM (UACC-257): 15% | inhibition of growth at 10 µM (OVCAR-4): 44% | inhibition of growth at 10 µM (RXF 393): 77% | inhibition of growth at 10 µM (KM12): 29% | inhibition of growth at 10 µM (MOLT-4): 88% | inhibition of growth at 10 µM (SK-OV-3): 34% | inhibition of growth at 10 µM (MDA-MB-435): 40% | inhibition of growth at 10 µM (HT-29): 59% | inhibition of growth at 10 µM (HOP-62): 70% | inhibition of growth at 10 µM (CAKI-1): 54% | inhibition of growth at 10 µM (SR): 79% | inhibition of growth at 10 µM (OVCAR-3): 51% | inhibition of growth at 10 µM (MDA-MB-231): 40% | inhibition of growth at 10 µM (SK-MEL-5): 45% | inhibition of growth at 10 µM (SK-MEL-2): 44% | inhibition of growth at 10 µM (SF-295): 35% | inhibition of growth at 10 µM (SK-MEL-28): 32% | inhibition of growth at 10 µM (HCC 2998): 76% | inhibition of growth at 10 µM (NCI-H460): 97% | inhibition of growth at 10 µM (BT-549): 23% | inhibition of growth at 10 µM (SN12C): 45% | inhibition of growth at 10 µM (TK-10): < 10% | inhibition of growth at 10 µM (HCT-116): 63% | inhibition of growth at 10 µM (NCI-H23): 74% | inhibition of growth at 10 µM (HOP-92): 33% | inhibition of growth at 10 µM (Hs-578T): 47% | inhibition of growth at 10 µM (T47D): 45%

CN(C)c1ccc(/C=N/Nc2nc(Nc3ccccc3)nc(Nc3ccc(S(N)(=O)=O)cc3)n2)cc1
inhibition of growth at 10 µM (NCI-H522): 20% | inhibition of growth at 10 µM (ACHN): 15% | inhibition of growth at 10 µM (MDA-MB-468): 14% | Ki (Carbonic anhydrase 9): 13.3 nM | inhibition of growth at 10 µM (OVCAR-5): < 10% | inhibition of growth at 10 µM (SNB-75): 12% | inhibition of growth at 10 µM (SNB-19): 16% | inhibition of growth at 10 µM (IGROV-1): 28% | inhibition of growth at 10 µM (HL-60(TB)): 29% | inhibition of growth at 10 µM (Malme-3M): 25% | inhibition of growth at 10 µM (K562): 39% | inhibition of growth at 10 µM (SF-539): 59% | inhibition of growth at 10 µM (UACC-257): < 10% | inhibition of growth at 10 µM (OVCAR-4): < 10% | inhibition of growth at 10 µM (RXF 393): 35% | inhibition of growth at 10 µM (KM12): 33% | inhibition of growth at 10 µM (MOLT-4): 44% | inhibition of growth at 10 µM (SK-OV-3): < 10% | inhibition of growth at 10 µM (MDA-MB-435): 11% | inhibition of growth at 10 µM (HT-29): 43% | inhibition of growth at 10 µM (HOP-62): 12% | inhibition of growth at 10 µM (CAKI-1): < 10% | inhibition of growth at 10 µM (SR): 29% | inhibition of growth at 10 µM (OVCAR-3): 14% | inhibition of growth at 10 µM (MDA-MB-231): 13% | inhibition of growth at 10 µM (SK-MEL-5): 14% | inhibition of growth at 10 µM (SK-MEL-2): 18% | inhibition of growth at 10 µM (SF-295): 53% | inhibition of growth at 10 µM (SK-MEL-28): 10% | inhibition of growth at 10 µM (HCC 2998): < 10% | inhibition of growth at 10 µM (NCI-H460): < 10% | inhibition of growth at 10 µM (BT-549): < 10% | inhibition of growth at 10 µM (SN12C): 22% | inhibition of growth at 10 µM (TK-10): < 10% | inhibition of growth at 10 µM (HCT-116): 45% | inhibition of growth at 10 µM (NCI-H23): 13% | inhibition of growth at 10 µM (HOP-92): < 10% | inhibition of growth at 10 µM (Hs-578T): 37% | inhibition of growth at 10 µM (T47D): 52%
